Results on eleven compounds are retold here after ChEMBL document CHEMBL1201862, “PubChem BioAssay data set” (2004).

Among the test systems are 786-0; A498; A549; BT-549; CAKI-1; HCT-15; Hs-578T; M14; MDA-N; MOLT-4; NCI-H460; SF-268; SF-295; SF-539; SK-MEL-5; SK-OV-3; SR; SW-620; UACC-62.
Holding throughout (assay): inhibition of tumour cell growth, NCI panel, 48 h

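All cell lines were grown in 96-well plates and treated with compound for 48 hours. Abbreviation: GI50, concentration required for 50% inhibition of growth.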 The source made the active and inactive calls. Rule as the data show it: active = GI50 up to about 1.1 µM and inactive = higher.

For `Cc1sc2nc(N(C)C)oc(=O)c2c1C`, the GI50 in the test on 786-0 is > 100 µM (inactive); in the test on A498 it was 81.3 µM (inactive); with A549, 85.9 µM (inactive); in the test on BT-549, 15.8 µM (inactive); with CAKI-1, 76.9 µM (inactive); with HCT-15 it was 82.6 µM. The GI50 in the test with Hs-578T is > 100 µM (inactive); in the test with M14 it was > 100 µM (inactive); in the test on MDA-N, > 100 µM (inactive); in the test with MOLT-4 it was 73.8 µM (inactive); in the test with NCI-H460, > 100 µM (inactive); in the test with SF-268 it was 7.01 µM (inactive). Further, the GI50 is 61.2 µM (inactive) in the test with SF-295; > 100 µM (inactive) in the test with SF-539; 72.4 µM (inactive) with SK-MEL-5; > 100 µM (inactive) in the test with SK-OV-3; 40.8 µM (inactive) in the test with SR; > 100 µM (inactive) in the test with SW-620. Moreover, the GI50 in the test on UACC-62 was > 100 µM (inactive).

In the case of `CCOC(=O)c1c(C)noc1/N=N/N(CCO)CCO`, the GI50 in the test on 786-0 was 38.2 µM (inactive); with A498, 21.7 µM (inactive); in the test with A549, 36.8 µM (inactive); with BT-549, 35.9 µM (inactive); in the test with CAKI-1 it was 61 µM (inactive); in the test on HCT-15, 41.5 µM. The GI50 with Hs-578T was 63.4 µM (inactive); in the test on M14, 49.5 µM (inactive); with MDA-N it was 27.7 µM (inactive); with MOLT-4, 21 µM (inactive); with NCI-H460, 27.9 µM (inactive); in the test on SF-268 it was 54.3 µM (inactive). Besides, the GI50 in the test on SF-295 was 23.7 µM (inactive); in the test with SK-MEL-5, 15.7 µM (inactive); in the test on SK-OV-3 it was 57.4 µM (inactive); with SR it was 19.9 µM (inactive); with SW-620 it was 28.3 µM (inactive); in the test on UACC-62 it was 23.9 µM (inactive).

For the compound `C=C=C(CC1CCCCC1=O)S(=O)(=O)c1ccccc1` (configuration not stated), the GI50 in the test with 786-0 was 4.2 µM (inactive); in the test on A498, > 10 µM (inactive); in the test on A549, > 10 µM (inactive); with BT-549, > 10 µM (inactive); with CAKI-1, > 10 µM (inactive); in the test with HCT-15, 4.52 µM. For the same compound, the GI50 in the test on Hs-578T is > 10 µM (inactive); in the test on M14, 3.12 µM (inactive); in the test on MDA-N it was > 7.13 µM (inactive); with MOLT-4, 0.0489 µM (active); with NCI-H460, > 10 µM (inactive); in the test with SF-268, > 10 µM (inactive). For the same compound, the GI50 in the test with SF-295 is > 10 µM (inactive); with SF-539 it was > 10 µM (inactive); with SK-MEL-5 it was > 4.8 µM (inactive); in the test with SK-OV-3, > 10 µM (inactive); with SR, 2.41 µM (inactive); with SW-620, 2.86 µM (inactive). The GI50 in the test with UACC-62 is > 5.12 µM (inactive).

With `Cn1c2ccccc2c2c(-c3ccccc3)cc3c(c21)C(=O)C=CC3=O`, the GI50 is 1.57 µM (inactive) in the test on 786-0; 2.23 µM (inactive) with A498; > 10 µM (inactive) with A549; 1.6 µM (inactive) with BT-549; 1.91 µM (inactive) in the test with CAKI-1; 1.85 µM in the test on HCT-15. For the same compound, the GI50 in the test on Hs-578T was 3.54 µM (inactive); with M14, 1.46 µM (inactive); in the test with MDA-N, 2.37 µM (inactive); in the test with MOLT-4, 0.28 µM (active); in the test on NCI-H460, 6.07 µM (inactive); in the test on SF-268 it was 3.36 µM (inactive). For the same compound, the GI50 is > 10 µM (inactive) in the test with SF-295; 1.92 µM (inactive) in the test on SF-539; 2.96 µM (inactive) in the test with SK-MEL-5; > 10 µM (inactive) in the test with SK-OV-3; 0.195 µM (active) with SR; 0.421 µM (active) with SW-620. Also, in the test with UACC-62, the GI50 was 1.73 µM (inactive).

In the case of `O=C(O)C(O)C(O)C(O)C(O)CO.[Ba+2]` (configuration not stated), the GI50 in the test on 786-0 is > 100 µM (inactive); in the test on A498, > 100 µM (inactive); in the test with A549, > 100 µM (inactive); in the test on BT-549, > 100 µM (inactive); in the test with CAKI-1 it was > 100 µM (inactive); in the test with HCT-15, above 100 µM. Moreover, the GI50 in the test with Hs-578T, in the test on M14, in the test on MDA-N, in the test on MOLT-4, with NCI-H460 and with SF-268 was > 100 µM (inactive) each time. For the same compound, the GI50 in the test with SF-295, with SF-539, with SK-MEL-5, in the test with SK-OV-3, in the test on SR and in the test on SW-620 was > 100 µM (inactive) in each case. The GI50 in the test on UACC-62 is > 100 µM (inactive).

Turning to `O=c1n(/N=C/c2ccccc2)c(=O)n2n1C1C=CC2CC1`, the GI50 in the test with 786-0 is > 100 µM (inactive); with A498, > 100 µM (inactive); in the test on A549 it was > 100 µM (inactive); in the test with BT-549, > 100 µM (inactive); in the test on CAKI-1, > 100 µM (inactive); with HCT-15, above 100 µM. For the same compound, the GI50 with Hs-578T, with M14, with MDA-N, in the test with MOLT-4, with NCI-H460 and in the test with SF-268 was > 100 µM (inactive) in each case. In addition, the GI50 in the test with SF-295, in the test on SF-539, with SK-MEL-5, in the test with SK-OV-3, in the test with SR and in the test with SW-620 was > 100 µM (inactive) throughout. For the same compound, the GI50 with UACC-62 is > 100 µM (inactive).

For the compound `COc1cc(C2SC(=N)Nc3c2c(C)nn3C(=O)c2ccccc2O)cc(OC)c1OC` (configuration not stated), the GI50 with 786-0 is 9.14 µM (inactive); with A498, 5 µM (inactive); in the test on A549, 4.24 µM (inactive); with BT-549, > 10 µM (inactive); with CAKI-1, 6.05 µM (inactive); in the test with HCT-15, 4.31 µM. The GI50 in the test with Hs-578T was 3.57 µM (inactive); with M14 it was 5.92 µM (inactive); with MDA-N it was 6.14 µM (inactive); in the test with MOLT-4 it was 4 µM (inactive); in the test on NCI-H460, 7.41 µM (inactive); in the test on SF-268 it was 6.71 µM (inactive). Besides, the GI50 was 3.51 µM (inactive) in the test on SF-295; 4.42 µM (inactive) in the test on SF-539; 3.78 µM (inactive) with SK-MEL-5; 1.66 µM (inactive) with SK-OV-3; 9.35 µM (inactive) in the test on SR; > 10 µM (inactive) in the test on SW-620. The GI50 in the test on UACC-62 is 2.72 µM (inactive).

With `Nc1nc(Nc2ccc(Cl)cc2)sc1C(=O)c1c[nH]c2ccccc12`, the GI50 in the test with 786-0 is 4.66 µM (inactive); in the test with A498 it was 7.94 µM (inactive); with A549 it was 13.6 µM (inactive); with BT-549, 16.9 µM (inactive); in the test with HCT-15, 3.87 µM; with Hs-578T, 21.6 µM (inactive). For the same compound, the GI50 was 11.2 µM (inactive) in the test on M14; 12.4 µM (inactive) in the test on MDA-N; 6.92 µM (inactive) with NCI-H460; 21.4 µM (inactive) in the test with SF-268; 15.8 µM (inactive) in the test with SF-539; 12 µM (inactive) with SK-MEL-5. Moreover, the GI50 in the test with SK-OV-3 is 21.4 µM (inactive); in the test on SR, 5.74 µM (inactive); with SW-620, 15.7 µM (inactive); in the test on UACC-62, 14.9 µM (inactive).

Consider `COC(=O)/C(C#N)=C(/NCc1ccccc1)Nc1ccccc1`, for which the GI50 was 92.5 µM (inactive) with 786-0; > 100 µM (inactive) with A498; 45.1 µM (inactive) in the test on A549; > 100 µM (inactive) in the test on BT-549; > 100 µM (inactive) with CAKI-1; 83.2 µM in the test on HCT-15. Moreover, the GI50 in the test on Hs-578T was 68.5 µM (inactive); in the test on M14 it was 42.4 µM (inactive); in the test on MDA-N it was 46.9 µM (inactive); in the test with MOLT-4, 30.1 µM (inactive); with NCI-H460, 77.4 µM (inactive); in the test on SF-268, > 100 µM (inactive). The GI50 in the test with SF-295 is 46.1 µM (inactive); in the test on SF-539, > 100 µM (inactive); with SK-MEL-5 it was 64 µM (inactive); in the test on SK-OV-3 it was > 100 µM (inactive); with SR it was 53.8 µM (inactive); in the test with SW-620, > 100 µM (inactive).

Turning to `COc1cccc(-c2cc(O)c3c(C)cc(C)nc3n2)c1`, the GI50 was 0.435 µM (active) with 786-0; 0.419 µM (active) with A498; 0.78 µM (active) in the test with A549; 12.3 µM (inactive) with BT-549; 0.399 µM in the test on HCT-15; 0.538 µM (active) with Hs-578T. For the same compound, the GI50 in the test with M14 was 0.406 µM (active); in the test with MDA-N, 0.067 µM (active); with MOLT-4, 0.531 µM (active); in the test with NCI-H460 it was 0.455 µM (active); in the test on SF-268 it was 0.578 µM (active); with SF-295 it was 0.493 µM (active). For the same compound, the GI50 in the test on SF-539 is 0.455 µM (active); in the test on SK-MEL-5 it was 0.301 µM (active); in the test with SK-OV-3 it was 0.468 µM (active); in the test with SR, 0.136 µM (active); in the test with SW-620 it was 0.333 µM (active); in the test with UACC-62, 0.448 µM (active).

For the compound `Cc1cc(N)ccc1/N=N\c1ccc(S(=O)(=O)CCOS(=O)(=O)O)cc1`, the GI50 with 786-0 is 0.414 µM (active); in the test on A498, 11.2 µM (inactive); with A549, 3.78 µM (inactive); in the test on BT-549, 1.53 µM (inactive); in the test on CAKI-1, 1.88 µM (inactive); in the test with HCT-15, 0.346 µM. For the same compound, the GI50 in the test with Hs-578T is 5.08 µM (inactive); in the test on M14, 0.513 µM (active); in the test with MDA-N, 0.282 µM (active); in the test on MOLT-4, 0.23 µM (active); in the test on NCI-H460, 3.44 µM (inactive); with SF-268, 6.11 µM (inactive). In addition, the GI50 in the test with SF-295 is 2.63 µM (inactive); in the test with SF-539, 2.46 µM (inactive); in the test with SK-MEL-5, 0.287 µM (active); in the test on SR, 0.488 µM (active); with SW-620 it was 0.368 µM (active); in the test on UACC-62, 1.57 µM (inactive).
